Experimental data reported in patent US20070128217A1 (priority 2003, published 2007).

Tests used:
[1] = tested on: antibodies in sera from SARS patients (sera 1a, 1b, 2, 6, 37, 62, London, SARS-yellow, SARS-green); assay type: binding, human; parameters: Binding of serum 6 to linear peptides of protein X1 of SARS-CoV Urbani / Binding of serum 37 to linear peptides of protein X1 of SARS-CoV Urbani / Binding of serum 6 to looped/cyclic peptide (PEPSCAN-ELISA) / Binding of serum 37 to looped/cyclic peptide (PEPSCAN-ELISA) / Binding of serum 37 to looped/cyclic peptides of protein X1 of SARS-CoV Urbani / Binding of serum 6 to linear peptides of protein X2 / Binding of serum 37 to linear peptides of protein X2 / Binding of serum 37 to looped/cyclic peptides of protein X2 of SARS-CoV Urbani / Binding of serum 6 to linear peptides of protein M of SARS-CoV Urbani / Binding of serum 37 to linear peptides of protein M of SARS-CoV Urbani / Binding of serum 6 to looped/cyclic peptides of protein M of SARS-CoV Urbani / Binding of serum 37 to looped/cyclic peptides of protein M of SARS-CoV Urbani / Binding of serum 6 to linear peptides of protein X3 of SARS-CoV Urbani / Binding of serum 37 to linear peptides of protein X3 of SARS-CoV Urbani / Binding of serum 37 to looped/cyclic peptides of protein X3 of SARS-CoV Urbani / Binding of serum 6 to linear peptides of protein X4 of SARS-CoV Urbani / Binding of serum 37 to linear peptides of protein X4 of SARS-CoV Urbani / Binding of serum 37 to looped/cyclic peptides of protein X4 of SARS-CoV Urbani / Binding of serum 6 to linear peptides of protein X5 of SARS-CoV Urbani / Binding of serum 37 to linear peptides of protein X5 of SARS-CoV Urbani / Binding of serum 37 to looped/cyclic peptides of protein X5 of SARS-CoV Urbani / Binding of serum 6 to linear peptides of protein N of SARS-CoV Urbani / Binding of serum 37 to linear peptides of protein N of SARS-CoV Urbani / Binding of serum 6 to linear peptide (PEPSCAN-ELISA) / Binding of serum 1a to looped/cyclic peptides of protein N of SARS-CoV Urbani / Binding of serum 1b to looped/cyclic peptides of protein N of SARS-CoV Urbani / Binding of serum 2 to looped/cyclic peptides of protein N of SARS-CoV Urbani / Binding of serum 6 to looped/cyclic peptides of protein N of SARS-CoV Urbani / Binding of serum 37 to looped/cyclic peptides of protein N of SARS-CoV Urbani / Binding of serum 62 to looped/cyclic peptides of protein N of SARS-CoV Urbani / Binding of serum London to looped/cyclic peptides of protein N of SARS-CoV Urbani / Binding of serum SARS-green to looped/cyclic peptides of protein N of SARS-CoV Urbani: unit not given here
[2] = tested on: rabbit serum obtained by immunizing a rabbit with the SARS-CoV strain Frankfurt 1; assay type: binding; parameters: Binding of a rabbit serum to linear peptides / Binding of a rabbit serum to looped peptides / Rabbit serum linear peptides / Rabbit serum looped peptides / Binding of a rabbit serum to linear peptides of protein N of SARS-CoV Urbani (Rabbit serum linear peptides) / Binding of a rabbit serum to looped/cyclic peptides of protein N of SARS-CoV Urbani (Rabbit serum looped peptides): unit not given here
[3] = tested on: control sera (pooled serum of ten healthy LUMC hospital workers; commercial negative donor pooled serum from the Dutch bloodbank); assay type: binding, human; parameters: Binding of Control serum LUMC to linear peptides / Binding of Control serum Blood-bank to linear peptides / Binding of Control serum LUMC to looped peptides / Binding of Control Serum Blood-Bank to Looped peptides / Binding of Control serum LUMC to linear peptides of the protein M of SARS-CoV Urbani / Binding of Control serum Blood-bank to linear peptides of the protein M of SARS-CoV Urbani / Binding of Control serum LUMC to looped peptides of the protein M of SARS-CoV Urbani / Binding of Control Serum Blood-Bank to Looped peptides of the protein M of SARS-CoV Urbani: unit not given here

## SELVIGAVIIRGHLR
[1]
  Binding of serum 1a to linear peptides of protein M of SARS-CoV Urbani: 0.7
  Binding of serum 1a to looped/cyclic peptides of protein M of SARS-CoV Urbani: 0.8
  Binding of serum 1b to linear peptides of protein M of SARS-CoV Urbani: 0.6
  Binding of serum 1b to looped/cyclic peptides of protein M of SARS-CoV Urbani: 0.7
  Binding of serum 2 to linear peptides of protein M of SARS-CoV Urbani: 0.6
  Binding of serum 2 to looped/cyclic peptides of protein M of SARS-CoV Urbani: 0.8
  Binding of serum 6 to linear peptides of protein M of SARS-CoV Urbani: 0.7
  Binding of serum 6 to looped/cyclic peptides of protein M of SARS-CoV Urbani: 0.6
  Binding of serum 37 to linear peptides of protein M of SARS-CoV Urbani: 0.5
  Binding of serum 37 to looped/cyclic peptides of protein M of SARS-CoV Urbani: 0.8
  Binding of serum 62 to linear peptides of protein M of SARS-CoV Urbani: 0.4
  Binding of serum 62 to looped/cyclic peptides of protein M of SARS-CoV Urbani: 0.8
  Binding of serum London to linear peptides of protein M of SARS-CoV Urbani: 0.4
  Binding of serum London to looped/cyclic peptides of protein M of SARS-CoV Urbani: 0.2
  Binding of serum SARS-green to linear peptides of protein M of SARS-CoV Urbani: 0.5
  Binding of serum SARS-green to looped/cyclic peptides of protein M of SARS-CoV Urbani: 0.3
  Binding of serum SARS-yellow to linear peptides of protein M of SARS-CoV Urbani: 0.3
  Binding of serum SARS-yellow to looped/cyclic peptides of protein M of SARS-CoV Urbani: 0.9
[2]
  Rabbit serum linear peptides: 0.2
  Rabbit serum looped peptides: 0.2
[3]
  Binding of Control Serum Blood-Bank to Looped peptides of the protein M of SARS-CoV Urbani: 0.6
  Binding of Control serum Blood-bank to linear peptides of the protein M of SARS-CoV Urbani: 0.8
  Binding of Control serum LUMC to linear peptides of the protein M of SARS-CoV Urbani: 0.9
  Binding of Control serum LUMC to looped peptides of the protein M of SARS-CoV Urbani: 0.6

## SFNPETNILLNVPLR
[1]
  Binding of serum 1a to linear peptides of protein M of SARS-CoV Urbani: 0.7
  Binding of serum 1a to looped/cyclic peptides of protein M of SARS-CoV Urbani: 0.8
  Binding of serum 1b to linear peptides of protein M of SARS-CoV Urbani: 0.4
  Binding of serum 1b to looped/cyclic peptides of protein M of SARS-CoV Urbani: 0.7
  Binding of serum 2 to linear peptides of protein M of SARS-CoV Urbani: 0.5
  Binding of serum 2 to looped/cyclic peptides of protein M of SARS-CoV Urbani: 0.9
  Binding of serum 6 to linear peptides of protein M of SARS-CoV Urbani: 0.3
  Binding of serum 6 to looped/cyclic peptides of protein M of SARS-CoV Urbani: 0.8
  Binding of serum 37 to linear peptides of protein M of SARS-CoV Urbani: 0.7
  Binding of serum 37 to looped/cyclic peptides of protein M of SARS-CoV Urbani: 0.7
  Binding of serum 62 to linear peptides of protein M of SARS-CoV Urbani: 0.7
  Binding of serum 62 to looped/cyclic peptides of protein M of SARS-CoV Urbani: 0.8
  Binding of serum London to linear peptides of protein M of SARS-CoV Urbani: 0.3
  Binding of serum London to looped/cyclic peptides of protein M of SARS-CoV Urbani: 0.3
  Binding of serum SARS-green to linear peptides of protein M of SARS-CoV Urbani: 0.3
  Binding of serum SARS-green to looped/cyclic peptides of protein M of SARS-CoV Urbani: 0.3
  Binding of serum SARS-yellow to linear peptides of protein M of SARS-CoV Urbani: 0.1
  Binding of serum SARS-yellow to looped/cyclic peptides of protein M of SARS-CoV Urbani: 1.0
[2]
  Rabbit serum linear peptides: 0.5
  Rabbit serum looped peptides: 0.4
[3]
  Binding of Control Serum Blood-Bank to Looped peptides of the protein M of SARS-CoV Urbani: 1.0
  Binding of Control serum Blood-bank to linear peptides of the protein M of SARS-CoV Urbani: 0.7
  Binding of Control serum LUMC to linear peptides of the protein M of SARS-CoV Urbani: 0.4
  Binding of Control serum LUMC to looped peptides of the protein M of SARS-CoV Urbani: 1.0

## SLLKTHRMCKYTQST
[1]
  Binding of serum 1a to linear peptides of protein X2: 0.8
  Binding of serum 1a to looped/cyclic peptides of protein X2 of SARS-CoV Urbani: 0.3
  Binding of serum 1b to linear peptides of protein X2: 0.6
  Binding of serum 1b to looped/cyclic peptides of protein X2 of SARS-CoV Urbani: 0.2
  Binding of serum 2 to linear peptides of protein X2: 0.6
  Binding of serum 2 to looped/cyclic peptides of protein X2 of SARS-CoV Urbani: 0.1
  Binding of serum 6 to linear peptides of protein X2: 0.6
  Binding of serum 6 to looped/cyclic peptides of protein X2 of SARS-CoV Urbani: 0.2
  Binding of serum 37 to linear peptides of protein X2: 0.6
  Binding of serum 37 to looped/cyclic peptides of protein X2 of SARS-CoV Urbani: 0.3
  Binding of serum 62 to linear peptides of protein X2: 0.7
  Binding of serum 62 to looped/cyclic peptides of protein X2 of SARS-CoV Urbani: 0.4
  Binding of serum London to linear peptides of protein X2: 0.6
  Binding of serum London to looped/cyclic peptides of protein X2 of SARS-CoV Urbani: 0.2
  Binding of serum SARS-green to linear peptides of protein X2: 0.7
  Binding of serum SARS-green to looped/cyclic peptides of protein X2 of SARS-CoV Urbani: 0.1
  Binding of serum SARS-yellow to linear peptides of protein X2: 0.7
  Binding of serum SARS-yellow to looped/cyclic peptides of protein X2 of SARS-CoV Urbani: 0.2
[2]
  Binding of a rabbit serum to linear peptides: 0.3
  Binding of a rabbit serum to looped peptides: 0.3
[3]
  Binding of Control Serum Blood-Bank to Looped peptides: 0.4
  Binding of Control serum Blood-bank to linear peptides: 0.9
  Binding of Control serum LUMC to linear peptides: 0.8
  Binding of Control serum LUMC to looped peptides: 0.4

## SLLKVTAFQHQNSKK
[1]
  Binding of serum 1a to linear peptides of protein X2: 0.4
  Binding of serum 1a to looped/cyclic peptides of protein X2 of SARS-CoV Urbani: 0.3
  Binding of serum 1b to linear peptides of protein X2: 0.0
  Binding of serum 1b to looped/cyclic peptides of protein X2 of SARS-CoV Urbani: 0.2
  Binding of serum 2 to linear peptides of protein X2: 0.1
  Binding of serum 2 to looped/cyclic peptides of protein X2 of SARS-CoV Urbani: 0.1
  Binding of serum 6 to linear peptides of protein X2: 0.0
  Binding of serum 6 to looped/cyclic peptides of protein X2 of SARS-CoV Urbani: 0.1
  Binding of serum 37 to linear peptides of protein X2: 0.4
  Binding of serum 37 to looped/cyclic peptides of protein X2 of SARS-CoV Urbani: 0.2
  Binding of serum 62 to linear peptides of protein X2: 0.1
  Binding of serum 62 to looped/cyclic peptides of protein X2 of SARS-CoV Urbani: 0.4
  Binding of serum London to linear peptides of protein X2: 0.1
  Binding of serum London to looped/cyclic peptides of protein X2 of SARS-CoV Urbani: 0.1
  Binding of serum SARS-green to linear peptides of protein X2: 0.0
  Binding of serum SARS-green to looped/cyclic peptides of protein X2 of SARS-CoV Urbani: 0.1
  Binding of serum SARS-yellow to linear peptides of protein X2: 0.0
  Binding of serum SARS-yellow to looped/cyclic peptides of protein X2 of SARS-CoV Urbani: 0.2
[2]
  Binding of a rabbit serum to linear peptides: 0.1
  Binding of a rabbit serum to looped peptides: 0.3
[3]
  Binding of Control Serum Blood-Bank to Looped peptides: 0.4
  Binding of Control serum Blood-bank to linear peptides: 0.2
  Binding of Control serum LUMC to linear peptides: 0.0
  Binding of Control serum LUMC to looped peptides: 0.3

## SLSLHKLLQTLVLKM
[1]
  Binding of serum 1a to linear peptides of protein X2: 0.6
  Binding of serum 1a to looped/cyclic peptides of protein X2 of SARS-CoV Urbani: 0.5
  Binding of serum 1b to linear peptides of protein X2: 0.5
  Binding of serum 1b to looped/cyclic peptides of protein X2 of SARS-CoV Urbani: 0.5
  Binding of serum 2 to linear peptides of protein X2: 0.3
  Binding of serum 2 to looped/cyclic peptides of protein X2 of SARS-CoV Urbani: 0.3
  Binding of serum 6 to linear peptides of protein X2: 0.5
  Binding of serum 6 to looped/cyclic peptides of protein X2 of SARS-CoV Urbani: 0.9
  Binding of serum 37 to linear peptides of protein X2: 0.4
  Binding of serum 37 to looped/cyclic peptides of protein X2 of SARS-CoV Urbani: 0.4
  Binding of serum 62 to linear peptides of protein X2: 0.5
  Binding of serum 62 to looped/cyclic peptides of protein X2 of SARS-CoV Urbani: 0.5
  Binding of serum London to linear peptides of protein X2: 0.4
  Binding of serum London to looped/cyclic peptides of protein X2 of SARS-CoV Urbani: 1.2
  Binding of serum SARS-green to linear peptides of protein X2: 0.6
  Binding of serum SARS-green to looped/cyclic peptides of protein X2 of SARS-CoV Urbani: 0.3
  Binding of serum SARS-yellow to linear peptides of protein X2: 0.3
  Binding of serum SARS-yellow to looped/cyclic peptides of protein X2 of SARS-CoV Urbani: 0.7
[2]
  Binding of a rabbit serum to linear peptides: 0.1
  Binding of a rabbit serum to looped peptides: 0.4
[3]
  Binding of Control Serum Blood-Bank to Looped peptides: 0.6
  Binding of Control serum Blood-bank to linear peptides: 0.4
  Binding of Control serum LUMC to linear peptides: 0.3
  Binding of Control serum LUMC to looped peptides: 0.7
